Measured values published in the kinase profiling compilation of Christmann-Franck et al. (2016).

Columns and labels:
Experiment in all cases: radiometric filter-binding kinase assay, Kinase HotSpot
Details in all cases: compound 0.5 µM; ATP 10 µM
MAP3K8 (human) = MAP3K8 (human) (UniProt P41279)
TSSK2 (human) = TSSK2 (human) (UniProt Q96PF2)
PNCK (human) = PNCK (human) (UniProt Q6P2M8)
MARK4 (human) = MARK4 (human) (UniProt Q96L34)
MAPK8 (human) = MAPK8 (human) (UniProt P45983)
TTK (human) = TTK (human) (UniProt P33981)
TEC (human) = TEC (human) (UniProt P42680)
CHUK (human) = CHUK (human) (UniProt O15111)
MAP4K2 (human) = MAP4K2 (human) (UniProt Q12851)
RPS6KA2 KD1 KD2 (human) = RPS6KA2 KD1 KD2 (human) (UniProt Q15349)
RIPK2 (human) = RIPK2 (human) (UniProt O43353)
CDK2 CCNE1 (human) = CDK2 CCNE1 (human) (UniProt P24941+P24864)
MELK (human) = MELK (human) (UniProt Q14680)
TYRO3 (human) = TYRO3 (human) (UniProt Q06418)
RPS6KA3 KD1 KD2 (human) = RPS6KA3 KD1 KD2 (human) (UniProt P51812)
NEK3 (human) = NEK3 (human) (UniProt P51956)
HIPK3 (human) = HIPK3 (human) (UniProt Q9H422)
CSNK1E (human) = CSNK1E (human) (UniProt P49674)
MAPK1 (human) = MAPK1 (human) (UniProt P28482)
PRKCZ (human) = PRKCZ (human) (UniProt Q05513)
PBK (human) = PBK (human) (UniProt Q96KB5)
ULK1 (human) = ULK1 (human) (UniProt O75385)
CDK4 CCND3 (human) = CDK4 CCND3 (human) (UniProt P30281+P11802)
MATK (human) = MATK (human) (UniProt P42679)
CDK9 CCNK (human) = CDK9 CCNK (human) (UniProt O75909+P50750)
FRK (human) = FRK (human) (UniProt P42685)
CHEK2 (human) = CHEK2 (human) (UniProt O96017)
FER (human) = FER (human) (UniProt P16591)
TXK (human) = TXK (human) (UniProt P42681)
PRKD3 (human) = PRKD3 (human) (UniProt O94806)
NEK7 (human) = NEK7 (human) (UniProt Q8TDX7)
CDK2 CCNA2 (human) = CDK2 CCNA2 (human) (UniProt P24941+P20248)
CAMK2D (human) = CAMK2D (human) (UniProt Q13557)
CHEK1 (human) = CHEK1 (human) (UniProt O14757)
KIT (human) = KIT (human) (UniProt P10721)
BLK (human) = BLK (human) (UniProt P51451)
PIM2 (human) = PIM2 (human) (UniProt Q9P1W9)
EPHA3 (human) = EPHA3 (human) (UniProt P29320)
FGFR4 (human) = FGFR4 (human) (UniProt P22455)
TAOK1 (human) = TAOK1 (human) (UniProt Q7L7X3)
CDK5 CDK5R1 p25 (human) = CDK5 CDK5R1 p25 (human) (UniProt Q00535+Q15078)

CAMK2D (human), sequence (Q13557 whole entry, looked up): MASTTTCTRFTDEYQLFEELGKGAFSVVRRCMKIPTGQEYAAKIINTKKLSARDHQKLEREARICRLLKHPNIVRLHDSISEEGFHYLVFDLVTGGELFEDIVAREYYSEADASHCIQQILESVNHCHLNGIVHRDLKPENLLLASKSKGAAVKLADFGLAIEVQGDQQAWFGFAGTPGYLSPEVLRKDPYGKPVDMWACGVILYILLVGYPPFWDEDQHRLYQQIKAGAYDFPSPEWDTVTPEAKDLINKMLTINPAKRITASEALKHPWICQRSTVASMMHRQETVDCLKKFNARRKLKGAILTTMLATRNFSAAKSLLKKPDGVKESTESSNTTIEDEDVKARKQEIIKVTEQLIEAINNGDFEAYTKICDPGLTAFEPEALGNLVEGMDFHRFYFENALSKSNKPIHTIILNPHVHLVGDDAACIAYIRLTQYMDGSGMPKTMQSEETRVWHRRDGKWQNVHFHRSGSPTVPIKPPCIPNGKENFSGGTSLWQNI
TXK (human), sequence (P42681 whole entry, looked up): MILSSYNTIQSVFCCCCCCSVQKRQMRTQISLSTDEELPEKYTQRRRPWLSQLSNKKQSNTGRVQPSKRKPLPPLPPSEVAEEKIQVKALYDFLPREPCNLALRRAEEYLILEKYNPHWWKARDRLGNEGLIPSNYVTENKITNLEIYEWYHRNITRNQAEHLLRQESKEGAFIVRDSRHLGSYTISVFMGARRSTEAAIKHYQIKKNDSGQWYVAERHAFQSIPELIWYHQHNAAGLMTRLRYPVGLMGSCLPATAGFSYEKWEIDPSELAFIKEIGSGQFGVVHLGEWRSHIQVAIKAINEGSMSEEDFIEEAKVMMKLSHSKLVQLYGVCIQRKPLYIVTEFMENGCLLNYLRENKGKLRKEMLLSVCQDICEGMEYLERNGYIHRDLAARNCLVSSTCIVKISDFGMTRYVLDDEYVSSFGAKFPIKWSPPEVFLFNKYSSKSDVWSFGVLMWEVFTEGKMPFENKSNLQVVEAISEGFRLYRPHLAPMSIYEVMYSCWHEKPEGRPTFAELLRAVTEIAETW
NEK7 (human), sequence (Q8TDX7 whole entry, looked up): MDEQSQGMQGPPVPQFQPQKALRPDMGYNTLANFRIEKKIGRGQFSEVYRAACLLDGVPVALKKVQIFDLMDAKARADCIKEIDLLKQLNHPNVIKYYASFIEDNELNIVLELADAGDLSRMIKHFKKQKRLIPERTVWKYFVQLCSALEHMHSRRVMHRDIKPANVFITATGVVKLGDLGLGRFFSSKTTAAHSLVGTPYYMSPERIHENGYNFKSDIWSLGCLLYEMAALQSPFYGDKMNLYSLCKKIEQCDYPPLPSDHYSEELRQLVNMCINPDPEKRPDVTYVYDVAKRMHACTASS
PNCK (human), sequence (Q6P2M8 whole entry, looked up): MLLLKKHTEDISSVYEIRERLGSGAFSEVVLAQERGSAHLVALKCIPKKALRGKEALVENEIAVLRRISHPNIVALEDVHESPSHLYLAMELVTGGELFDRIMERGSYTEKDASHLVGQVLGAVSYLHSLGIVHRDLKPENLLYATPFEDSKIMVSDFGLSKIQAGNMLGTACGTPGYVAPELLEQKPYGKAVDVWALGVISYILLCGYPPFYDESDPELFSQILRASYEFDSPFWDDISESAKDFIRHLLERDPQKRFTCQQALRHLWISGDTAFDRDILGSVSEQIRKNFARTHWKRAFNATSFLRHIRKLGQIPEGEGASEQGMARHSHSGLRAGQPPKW
ULK1 (human), sequence (O75385 whole entry, looked up): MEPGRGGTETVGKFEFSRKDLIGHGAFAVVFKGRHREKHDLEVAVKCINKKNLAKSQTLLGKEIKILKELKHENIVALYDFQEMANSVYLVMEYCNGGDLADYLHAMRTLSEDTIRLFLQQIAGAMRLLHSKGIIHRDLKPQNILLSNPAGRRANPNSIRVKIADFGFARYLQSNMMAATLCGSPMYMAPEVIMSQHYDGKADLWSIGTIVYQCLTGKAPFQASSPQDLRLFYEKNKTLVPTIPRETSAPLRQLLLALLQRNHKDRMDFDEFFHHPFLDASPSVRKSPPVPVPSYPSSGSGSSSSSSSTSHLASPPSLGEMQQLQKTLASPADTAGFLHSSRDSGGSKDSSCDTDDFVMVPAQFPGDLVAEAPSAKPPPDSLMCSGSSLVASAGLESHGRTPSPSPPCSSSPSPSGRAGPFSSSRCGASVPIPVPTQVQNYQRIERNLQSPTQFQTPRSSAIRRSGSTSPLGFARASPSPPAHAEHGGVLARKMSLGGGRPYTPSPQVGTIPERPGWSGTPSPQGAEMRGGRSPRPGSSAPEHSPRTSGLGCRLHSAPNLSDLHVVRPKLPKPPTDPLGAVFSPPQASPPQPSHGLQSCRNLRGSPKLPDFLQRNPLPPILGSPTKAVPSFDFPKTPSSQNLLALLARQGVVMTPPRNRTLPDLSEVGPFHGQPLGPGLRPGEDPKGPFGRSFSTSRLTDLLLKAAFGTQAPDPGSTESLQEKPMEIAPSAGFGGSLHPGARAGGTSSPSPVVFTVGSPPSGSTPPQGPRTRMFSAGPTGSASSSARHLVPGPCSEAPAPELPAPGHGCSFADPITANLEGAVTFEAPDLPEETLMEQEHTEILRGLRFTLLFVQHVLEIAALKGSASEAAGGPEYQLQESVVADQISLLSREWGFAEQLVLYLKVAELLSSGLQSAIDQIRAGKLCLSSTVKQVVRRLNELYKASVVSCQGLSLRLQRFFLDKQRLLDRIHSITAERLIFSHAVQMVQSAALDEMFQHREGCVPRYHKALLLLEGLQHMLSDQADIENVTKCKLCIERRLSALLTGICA
KIT (human), sequence (P10721 whole entry, looked up): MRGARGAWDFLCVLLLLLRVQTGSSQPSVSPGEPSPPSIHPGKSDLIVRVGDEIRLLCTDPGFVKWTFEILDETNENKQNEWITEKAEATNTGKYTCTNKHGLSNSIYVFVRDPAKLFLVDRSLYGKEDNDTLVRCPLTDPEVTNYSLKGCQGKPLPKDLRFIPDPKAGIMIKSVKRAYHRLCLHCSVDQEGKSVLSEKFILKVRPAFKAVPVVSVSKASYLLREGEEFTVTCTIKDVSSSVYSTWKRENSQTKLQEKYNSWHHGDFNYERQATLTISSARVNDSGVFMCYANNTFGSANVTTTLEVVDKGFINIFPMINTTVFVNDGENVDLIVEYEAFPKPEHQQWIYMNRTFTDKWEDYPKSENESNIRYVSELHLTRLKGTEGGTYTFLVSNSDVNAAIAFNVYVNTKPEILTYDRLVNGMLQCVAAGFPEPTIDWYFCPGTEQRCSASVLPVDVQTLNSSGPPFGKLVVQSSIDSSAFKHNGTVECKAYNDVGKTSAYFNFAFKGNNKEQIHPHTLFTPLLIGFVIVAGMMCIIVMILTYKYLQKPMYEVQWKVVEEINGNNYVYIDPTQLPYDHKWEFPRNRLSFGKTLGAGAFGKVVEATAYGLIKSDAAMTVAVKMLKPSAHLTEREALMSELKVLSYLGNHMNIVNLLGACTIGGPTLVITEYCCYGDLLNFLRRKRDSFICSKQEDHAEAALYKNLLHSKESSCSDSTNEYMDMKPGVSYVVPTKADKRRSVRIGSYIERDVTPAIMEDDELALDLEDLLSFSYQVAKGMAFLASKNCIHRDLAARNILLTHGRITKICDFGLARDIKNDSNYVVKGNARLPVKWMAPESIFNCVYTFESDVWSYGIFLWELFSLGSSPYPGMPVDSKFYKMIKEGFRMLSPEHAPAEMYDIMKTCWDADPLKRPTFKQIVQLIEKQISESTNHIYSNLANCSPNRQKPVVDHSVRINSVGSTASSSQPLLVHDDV
MAP4K2 (human), sequence (Q12851 whole entry, looked up): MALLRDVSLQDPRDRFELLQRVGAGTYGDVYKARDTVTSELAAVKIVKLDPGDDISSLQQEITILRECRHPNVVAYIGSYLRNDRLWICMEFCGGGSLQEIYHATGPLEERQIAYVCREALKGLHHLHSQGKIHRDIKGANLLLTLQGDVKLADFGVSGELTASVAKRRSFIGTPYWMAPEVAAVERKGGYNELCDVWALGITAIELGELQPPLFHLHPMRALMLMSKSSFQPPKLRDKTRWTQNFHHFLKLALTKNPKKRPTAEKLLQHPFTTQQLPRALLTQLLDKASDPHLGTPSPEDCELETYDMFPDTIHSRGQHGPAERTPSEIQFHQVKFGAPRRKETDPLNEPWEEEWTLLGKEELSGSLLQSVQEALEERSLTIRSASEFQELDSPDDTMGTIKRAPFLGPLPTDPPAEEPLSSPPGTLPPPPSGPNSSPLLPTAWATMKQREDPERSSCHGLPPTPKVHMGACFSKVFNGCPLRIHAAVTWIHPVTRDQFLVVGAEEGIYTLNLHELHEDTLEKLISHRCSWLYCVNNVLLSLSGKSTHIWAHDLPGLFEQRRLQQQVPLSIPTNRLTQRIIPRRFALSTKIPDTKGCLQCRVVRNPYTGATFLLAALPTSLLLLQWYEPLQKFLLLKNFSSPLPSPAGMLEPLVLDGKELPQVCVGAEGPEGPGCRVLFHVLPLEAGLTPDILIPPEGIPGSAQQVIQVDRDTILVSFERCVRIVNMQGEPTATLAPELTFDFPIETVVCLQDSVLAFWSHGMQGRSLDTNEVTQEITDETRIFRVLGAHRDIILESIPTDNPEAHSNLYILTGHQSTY
PIM2 (human), sequence (Q9P1W9 whole entry, looked up): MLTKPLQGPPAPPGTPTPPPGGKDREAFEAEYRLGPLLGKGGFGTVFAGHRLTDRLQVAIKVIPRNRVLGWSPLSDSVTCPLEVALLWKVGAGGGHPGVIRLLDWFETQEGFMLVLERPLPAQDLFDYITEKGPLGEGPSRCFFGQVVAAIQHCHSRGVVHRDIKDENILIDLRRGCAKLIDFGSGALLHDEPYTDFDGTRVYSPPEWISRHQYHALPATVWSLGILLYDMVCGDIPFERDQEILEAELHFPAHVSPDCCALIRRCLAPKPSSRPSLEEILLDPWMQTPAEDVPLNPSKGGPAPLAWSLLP

CC[n+]1c(/C=C/N(C)c2ccccc2)n(-c2ccccc2)c2ccc(-c3nc4ccccc4s3)cc21
residual activity (MAP3K8 (human)): 92% | residual activity (TSSK2 (human)): 98.4% | residual activity (PNCK (human)): 114% | residual activity (MARK4 (human)): 110% | residual activity (MAPK8 (human)): 96.3% | residual activity (TTK (human)): 96.6% | residual activity (TEC (human)): 161% | residual activity (CHUK (human)): 86% | residual activity (MAP4K2 (human)): 103% | residual activity (RPS6KA2 KD1 KD2 (human)): 101% | residual activity (RIPK2 (human)): 88.6% | residual activity (CDK2 CCNE1 (human)): 92.9% | residual activity (MELK (human)): 93.4% | residual activity (TYRO3 (human)): 103% | residual activity (RPS6KA3 KD1 KD2 (human)): 109% | residual activity (NEK3 (human)): 102% | residual activity (HIPK3 (human)): 105% | residual activity (CSNK1E (human)): 105% | residual activity (MAPK1 (human)): 112% | residual activity (PRKCZ (human)): 99.8% | residual activity (PBK (human)): 107% | residual activity (ULK1 (human)): 90.9% | residual activity (CDK4 CCND3 (human)): 102% | residual activity (MATK (human)): 96.4% | residual activity (CDK9 CCNK (human)): 106% | residual activity (FRK (human)): 97.1% | residual activity (CHEK2 (human)): 105% | residual activity (FER (human)): 98.9% | residual activity (TXK (human)): 107% | residual activity (PRKD3 (human)): 97.4% | residual activity (NEK7 (human)): 95.4% | residual activity (CDK2 CCNA2 (human)): 100% | residual activity (CAMK2D (human)): 94% | residual activity (CHEK1 (human)): 103% | residual activity (KIT (human)): 104% | residual activity (BLK (human)): 99.1% | residual activity (PIM2 (human)): 117% | residual activity (EPHA3 (human)): 99.4% | residual activity (FGFR4 (human)): 84.1% | residual activity (TAOK1 (human)): 99.4% | residual activity (CDK5 CDK5R1 p25 (human)): 103%

O=C1Nc2ccc(Cl)cc2/C1=C/c1cc(Cl)c(O)c(Cl)c1
residual activity (MAP3K8 (human)): 93.1% | residual activity (TSSK2 (human)): 94.4% | residual activity (PNCK (human)): 94.2% | residual activity (MARK4 (human)): 78.4% | residual activity (MAPK8 (human)): 82.8% | residual activity (TTK (human)): 84.4% | residual activity (TEC (human)): 109% | residual activity (CHUK (human)): 97% | residual activity (MAP4K2 (human)): 62.6% | residual activity (RPS6KA2 KD1 KD2 (human)): 71.9% | residual activity (RIPK2 (human)): 50.2% | residual activity (CDK2 CCNE1 (human)): 90% | residual activity (MELK (human)): 83.6% | residual activity (TYRO3 (human)): 94.9% | residual activity (RPS6KA3 KD1 KD2 (human)): 96% | residual activity (NEK3 (human)): 94% | residual activity (HIPK3 (human)): 91.5% | residual activity (CSNK1E (human)): 66.6% | residual activity (MAPK1 (human)): 84.3% | residual activity (PRKCZ (human)): 95.3% | residual activity (PBK (human)): 86.1% | residual activity (ULK1 (human)): 95% | residual activity (CDK4 CCND3 (human)): 94.8% | residual activity (MATK (human)): 82.2% | residual activity (CDK9 CCNK (human)): 79.4% | residual activity (FRK (human)): 70.3% | residual activity (CHEK2 (human)): 70.2% | residual activity (FER (human)): 92.1% | residual activity (TXK (human)): 86.6% | residual activity (PRKD3 (human)): 80.7% | residual activity (NEK7 (human)): 100% | residual activity (CDK2 CCNA2 (human)): 99.5% | residual activity (CAMK2D (human)): 80.2% | residual activity (CHEK1 (human)): 86.4% | residual activity (KIT (human)): 35% | residual activity (BLK (human)): 102% | residual activity (PIM2 (human)): 48.6% | residual activity (EPHA3 (human)): 82.5% | residual activity (FGFR4 (human)): 98% | residual activity (TAOK1 (human)): 71.6% | residual activity (CDK5 CDK5R1 p25 (human)): 82.6%

N#CC(C#N)=C(N)/C(C#N)=C/c1ccc(O)cc1
residual activity (MAP3K8 (human)): 96% | residual activity (TSSK2 (human)): 94.6% | residual activity (PNCK (human)): 97.3% | residual activity (MARK4 (human)): 94.3% | residual activity (MAPK8 (human)): 100% | residual activity (TTK (human)): 94.4% | residual activity (TEC (human)): 94.7% | residual activity (CHUK (human)): 94% | residual activity (MAP4K2 (human)): 100% | residual activity (RPS6KA2 KD1 KD2 (human)): 96.2% | residual activity (RIPK2 (human)): 95.5% | residual activity (CDK2 CCNE1 (human)): 97% | residual activity (MELK (human)): 101% | residual activity (TYRO3 (human)): 99.3% | residual activity (RPS6KA3 KD1 KD2 (human)): 94.6% | residual activity (NEK3 (human)): 98% | residual activity (HIPK3 (human)): 102% | residual activity (CSNK1E (human)): 92.4% | residual activity (MAPK1 (human)): 101% | residual activity (PRKCZ (human)): 105% | residual activity (PBK (human)): 96.4% | residual activity (ULK1 (human)): 89.3% | residual activity (CDK4 CCND3 (human)): 97.1% | residual activity (MATK (human)): 92.5% | residual activity (CDK9 CCNK (human)): 100% | residual activity (FRK (human)): 99% | residual activity (CHEK2 (human)): 95.5% | residual activity (FER (human)): 91.1% | residual activity (TXK (human)): 100% | residual activity (PRKD3 (human)): 91.9% | residual activity (NEK7 (human)): 98.9% | residual activity (CDK2 CCNA2 (human)): 97.9% | residual activity (CAMK2D (human)): 91.1% | residual activity (CHEK1 (human)): 98.3% | residual activity (KIT (human)): 92.4% | residual activity (BLK (human)): 101% | residual activity (PIM2 (human)): 88.2% | residual activity (EPHA3 (human)): 98.3% | residual activity (FGFR4 (human)): 91.1% | residual activity (TAOK1 (human)): 93.2% | residual activity (CDK5 CDK5R1 p25 (human)): 97.6%

CCOC(=O)c1c(C)[nH]c(/C=C2\C(=O)Nc3ccccc32)c1C
residual activity (MAP3K8 (human)): 108% | residual activity (TSSK2 (human)): 95.9% | residual activity (PNCK (human)): 88.6% | residual activity (MARK4 (human)): 99.6% | residual activity (MAPK8 (human)): 106% | residual activity (TTK (human)): 96.6% | residual activity (TEC (human)): 141% | residual activity (CHUK (human)): 102% | residual activity (MAP4K2 (human)): 95.5% | residual activity (RPS6KA2 KD1 KD2 (human)): 71.4% | residual activity (RIPK2 (human)): 88.3% | residual activity (CDK2 CCNE1 (human)): 95.6% | residual activity (MELK (human)): 87.4% | residual activity (TYRO3 (human)): 96.9% | residual activity (RPS6KA3 KD1 KD2 (human)): 86.4% | residual activity (NEK3 (human)): 101% | residual activity (HIPK3 (human)): 94.5% | residual activity (CSNK1E (human)): 73.7% | residual activity (MAPK1 (human)): 96.4% | residual activity (PRKCZ (human)): 97% | residual activity (PBK (human)): 85% | residual activity (ULK1 (human)): 80.1% | residual activity (CDK4 CCND3 (human)): 106% | residual activity (MATK (human)): 101% | residual activity (CDK9 CCNK (human)): 97.5% | residual activity (FRK (human)): 95.3% | residual activity (CHEK2 (human)): 70.5% | residual activity (FER (human)): 72.5% | residual activity (TXK (human)): 96.1% | residual activity (PRKD3 (human)): 90.1% | residual activity (NEK7 (human)): 102% | residual activity (CDK2 CCNA2 (human)): 94.5% | residual activity (CAMK2D (human)): 93.9% | residual activity (CHEK1 (human)): 89.4% | residual activity (KIT (human)): 46.3% | residual activity (BLK (human)): 80.2% | residual activity (PIM2 (human)): 97.7% | residual activity (EPHA3 (human)): 96.3% | residual activity (FGFR4 (human)): 82.4% | residual activity (TAOK1 (human)): 100% | residual activity (CDK5 CDK5R1 p25 (human)): 92.7%

Cc1ccc(S(=O)(=O)/C=C/C#N)cc1
residual activity (MAP3K8 (human)): 96.2% | residual activity (TSSK2 (human)): 103% | residual activity (PNCK (human)): 107% | residual activity (MARK4 (human)): 99% | residual activity (MAPK8 (human)): 74.7% | residual activity (TTK (human)): 107% | residual activity (TEC (human)): 144% | residual activity (CHUK (human)): 87.3% | residual activity (MAP4K2 (human)): 130% | residual activity (RPS6KA2 KD1 KD2 (human)): 100% | residual activity (RIPK2 (human)): 93.8% | residual activity (CDK2 CCNE1 (human)): 89.2% | residual activity (MELK (human)): 92% | residual activity (TYRO3 (human)): 99.8% | residual activity (RPS6KA3 KD1 KD2 (human)): 95.9% | residual activity (NEK3 (human)): 108% | residual activity (HIPK3 (human)): 100% | residual activity (CSNK1E (human)): 107% | residual activity (MAPK1 (human)): 100% | residual activity (PRKCZ (human)): 101% | residual activity (PBK (human)): 83.2% | residual activity (ULK1 (human)): 102% | residual activity (CDK4 CCND3 (human)): 100% | residual activity (MATK (human)): 101% | residual activity (CDK9 CCNK (human)): 112% | residual activity (FRK (human)): 91.6% | residual activity (CHEK2 (human)): 107% | residual activity (FER (human)): 104% | residual activity (TXK (human)): 103% | residual activity (PRKD3 (human)): 96.1% | residual activity (NEK7 (human)): 93.4% | residual activity (CDK2 CCNA2 (human)): 98% | residual activity (CAMK2D (human)): 102% | residual activity (CHEK1 (human)): 97.5% | residual activity (KIT (human)): 102% | residual activity (BLK (human)): 103% | residual activity (PIM2 (human)): 103% | residual activity (EPHA3 (human)): 95% | residual activity (FGFR4 (human)): 94.3% | residual activity (TAOK1 (human)): 96.5% | residual activity (CDK5 CDK5R1 p25 (human)): 86.8%
